Experimental data as given in paper PMC10472371, “Discovery of E2730, a novel selective uncompetitive GAT1 inhibitor, as a candidate for anti‐seizure medication” (Epilepsia Open, 2023).
Read-outs that look alike come from different tables or passages of the source. Marks after values point to notes of the source that are not given here.

Experiments:
[1] = system: corneal kindling mice; details: cited from earlier work
[2] = target: T1, hGABAAR (containing α1, β3, and γ2 subunits) (Homo sapiens, UniProt P14867+P18507+P28472); assay: GABA-induced current in hGABAAR-expressing HEK-293 cells, whole-cell patch-clamp; type: cell-based
T1 construct: expressed in transfected cells; host or cells: HEK-293
Experimental: Data represent the mean ± SEM of 3 independent experiments. Control response is GABA (13 μM)-induced current amplitude. […] Cells in voltage clamp were maintained at -80 mV throughout the experiments following the voltage protocol.

[3] = target: T2, hNav1.2 (Homo sapiens, UniProt Q99250); assay: Veratridine-induced hNav1.2 activation in CHO cells, membrane potential assay; type: cell-based; details: veratridine 50 μM
T2 construct: expressed in transfected cells; host or cells: CHO
Experimental: Data represent the mean ± SEM of three independent experiments. Effects of E2730 and desipramine (Sigma-Aldrich, MO) on hNav1.2 activity were evaluated in CHO cells stably expressing hNav1.2 using a fluorescent-based membrane potential assay (Molecular Devices, CA). Activation of hNav1.2 was induced by veratridine (50 μM) and the change of fluorescence (excitation wavelength, 480 nm; emission wavelength, 540 nm) was recorded using Fluorescence Drug Screening System 6000 (Hamamatsu Photonics, Japan).

[4] = system: ddY mice; details: ref Levy et al.[39]; cited from earlier work
[5] = system: extracellular GABA concentration in mouse hippocampus; assay: Microdialysis: extracellular GABA concentration in mouse hippocampus; type: in vivo; details: mouse hippocampus, oral; E2730 10-100 mg/kg, tiagabine 3-30 mg/kg
Experimental: A guide cannula was implanted in the left hippocampus (2.7 mm posterior, 3.3 mm left, and 1.8 mm below from the bregma) of ddY mice (male, 5 weeks old). After 5–7 days of recovery, a microdialysis probe (Eicom) was inserted into the left hippocampus through the guide cannula. The tip of the microdialysis probe reached 4.8 mm below the bregma. The next day, the probe was connected to a perfusion tube and perfused with Ringer solution (containing 147.0 mM NaCl, 4.7 mM KCl, 0.6 mM MgSO4, 2.5 mM CaCl2, 5.0 mM HEPES, pH 7.4) at a flow rate of 1.5 μL/min. After ≥160 minutes of perfusion, collection of the perfusate (30 μL/20 min/fraction) was initiated, and 12 fractions per animal were collected for 240 minutes. E2730 (10–100 mg/kg), tiagabine (3–30 mg/kg), or vehicle was orally administered 72 minutes after initiating sample collection. Tiagabine was used as a reference ASM of a non‐competitive GAT1 inhibitor. Perfusate was switched from Ringer solution to high‐potassium Ringer solution (51.7 mM NaCl, 100.0 mM KCl, 0.6 mM MgSO4, 2.5 mM CaCl2, 5.0 mM HEPES, pH 7.4) after 127 minutes following the collection. GABA concentration in each sample was measured by a high‐performance liquid chromatography with tandem mass spectrometry method.

[6] = system: amygdala kindling rats; assay: Amygdala kindling in rats; type: in vivo, rat
Description: A tripolar electrode was implanted into the basolateral amygdala of Wistar‐Kyoto rats (male, 7 weeks old; Charles River Laboratories Japan, Japan). After at least 5 days of recovery, the amygdala was stimulated using an electronic stimulator at currents starting at 0.04 mA (50 Hz, 1 millisecond monophasic square‐wave pulses, 1‐second duration each) then increasing by 25% to a 30‐second duration until the after‐discharge threshold (ADT) was attained. ADT was defined as the current at which abnormal electroencephalogram and at least Racine's stage‐1 seizure behavior were observed. In the Racine's stage, seizure severity was classified as: 1, mouth and facial movements; 2, head nodding; 3, forelimb clonus; 4, rearing; 5, rearing and falling. From the next day onwards, electrical stimulation at the previously determined ADT was performed once daily in each rat. The rats showing ≥3 consecutive Racine stage‐5 seizures were deemed epileptic and used for drug evaluation. The pre‐ADT (i.e. baseline) seizure threshold of each rat was established prior to drug administration. After >1 hour following the determination of pre‐ADT seizure threshold, E2730 (5–50 mg/kg), levetiracetam (25 mg/kg), or vehicle was orally administered to the rats. One hour after the administration, the post‐ADT seizure threshold of each rat was ascertained, and the ratios of post‐ADT to pre‐ADT readings were analyzed.

[7] = system: 6 Hz-44 mA psychomotor seizure mice; assay: Pharmaco-resistant 6 Hz-44 mA psychomotor seizures in mice; type: in vivo, mouse
Experimental: Psychomotor seizures were stimulated by applying currents (44 mA, 6 Hz, 0.2 millisecond rectangular pulse width, 3‐second duration each) via a corneal electrode (SEN‐7203; Nihon Kohden). E2730 (5–50 mg/kg), levetiracetam (Tokyo Chemical Industry; 20–200 mg/kg), or vehicle was orally administered to ddY mice (male, 5 weeks old; Japan SLC Inc.) 1 hour before electrostimulation. […] Behavioral seizures observed in mice were classified into the following four types: stun, forelimb clonus, twitching of the vibrissae, and Straub‐tail.

T1 sequence (P14867 28-456): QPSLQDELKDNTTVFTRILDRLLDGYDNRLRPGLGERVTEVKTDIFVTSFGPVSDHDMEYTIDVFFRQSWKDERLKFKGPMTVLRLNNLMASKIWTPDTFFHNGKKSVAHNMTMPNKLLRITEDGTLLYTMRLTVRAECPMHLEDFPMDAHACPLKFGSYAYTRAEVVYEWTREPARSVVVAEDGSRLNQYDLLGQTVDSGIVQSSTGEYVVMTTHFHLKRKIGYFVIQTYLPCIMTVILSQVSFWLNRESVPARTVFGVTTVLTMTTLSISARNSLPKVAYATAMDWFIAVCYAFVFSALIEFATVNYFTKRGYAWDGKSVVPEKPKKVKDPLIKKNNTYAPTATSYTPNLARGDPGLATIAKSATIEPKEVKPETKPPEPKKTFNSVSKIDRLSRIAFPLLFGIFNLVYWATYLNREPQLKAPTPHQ
T1 sequence (P28472 26-473): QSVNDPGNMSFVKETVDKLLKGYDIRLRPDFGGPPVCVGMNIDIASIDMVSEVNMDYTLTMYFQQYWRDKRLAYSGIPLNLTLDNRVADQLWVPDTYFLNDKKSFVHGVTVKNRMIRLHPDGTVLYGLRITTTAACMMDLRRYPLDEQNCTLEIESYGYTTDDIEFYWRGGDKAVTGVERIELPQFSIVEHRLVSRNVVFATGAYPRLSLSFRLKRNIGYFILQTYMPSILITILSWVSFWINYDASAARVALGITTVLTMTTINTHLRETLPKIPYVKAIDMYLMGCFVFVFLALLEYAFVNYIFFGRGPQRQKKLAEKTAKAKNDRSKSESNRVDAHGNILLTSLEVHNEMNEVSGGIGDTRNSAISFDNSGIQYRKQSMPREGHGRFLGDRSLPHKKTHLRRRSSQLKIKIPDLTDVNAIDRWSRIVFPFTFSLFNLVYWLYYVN
T1 sequence (P18507 40-475): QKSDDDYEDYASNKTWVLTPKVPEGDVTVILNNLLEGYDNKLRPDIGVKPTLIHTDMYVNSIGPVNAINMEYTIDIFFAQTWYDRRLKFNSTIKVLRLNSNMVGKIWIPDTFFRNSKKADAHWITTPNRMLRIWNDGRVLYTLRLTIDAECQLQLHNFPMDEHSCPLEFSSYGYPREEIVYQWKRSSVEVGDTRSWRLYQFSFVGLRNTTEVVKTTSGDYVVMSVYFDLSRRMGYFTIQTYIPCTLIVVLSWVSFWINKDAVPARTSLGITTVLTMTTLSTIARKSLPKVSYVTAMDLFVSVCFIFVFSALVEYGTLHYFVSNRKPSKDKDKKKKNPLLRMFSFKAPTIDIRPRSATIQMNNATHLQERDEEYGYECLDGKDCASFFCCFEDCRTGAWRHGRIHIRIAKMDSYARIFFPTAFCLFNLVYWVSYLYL
T2 sequence (Q99250 whole entry): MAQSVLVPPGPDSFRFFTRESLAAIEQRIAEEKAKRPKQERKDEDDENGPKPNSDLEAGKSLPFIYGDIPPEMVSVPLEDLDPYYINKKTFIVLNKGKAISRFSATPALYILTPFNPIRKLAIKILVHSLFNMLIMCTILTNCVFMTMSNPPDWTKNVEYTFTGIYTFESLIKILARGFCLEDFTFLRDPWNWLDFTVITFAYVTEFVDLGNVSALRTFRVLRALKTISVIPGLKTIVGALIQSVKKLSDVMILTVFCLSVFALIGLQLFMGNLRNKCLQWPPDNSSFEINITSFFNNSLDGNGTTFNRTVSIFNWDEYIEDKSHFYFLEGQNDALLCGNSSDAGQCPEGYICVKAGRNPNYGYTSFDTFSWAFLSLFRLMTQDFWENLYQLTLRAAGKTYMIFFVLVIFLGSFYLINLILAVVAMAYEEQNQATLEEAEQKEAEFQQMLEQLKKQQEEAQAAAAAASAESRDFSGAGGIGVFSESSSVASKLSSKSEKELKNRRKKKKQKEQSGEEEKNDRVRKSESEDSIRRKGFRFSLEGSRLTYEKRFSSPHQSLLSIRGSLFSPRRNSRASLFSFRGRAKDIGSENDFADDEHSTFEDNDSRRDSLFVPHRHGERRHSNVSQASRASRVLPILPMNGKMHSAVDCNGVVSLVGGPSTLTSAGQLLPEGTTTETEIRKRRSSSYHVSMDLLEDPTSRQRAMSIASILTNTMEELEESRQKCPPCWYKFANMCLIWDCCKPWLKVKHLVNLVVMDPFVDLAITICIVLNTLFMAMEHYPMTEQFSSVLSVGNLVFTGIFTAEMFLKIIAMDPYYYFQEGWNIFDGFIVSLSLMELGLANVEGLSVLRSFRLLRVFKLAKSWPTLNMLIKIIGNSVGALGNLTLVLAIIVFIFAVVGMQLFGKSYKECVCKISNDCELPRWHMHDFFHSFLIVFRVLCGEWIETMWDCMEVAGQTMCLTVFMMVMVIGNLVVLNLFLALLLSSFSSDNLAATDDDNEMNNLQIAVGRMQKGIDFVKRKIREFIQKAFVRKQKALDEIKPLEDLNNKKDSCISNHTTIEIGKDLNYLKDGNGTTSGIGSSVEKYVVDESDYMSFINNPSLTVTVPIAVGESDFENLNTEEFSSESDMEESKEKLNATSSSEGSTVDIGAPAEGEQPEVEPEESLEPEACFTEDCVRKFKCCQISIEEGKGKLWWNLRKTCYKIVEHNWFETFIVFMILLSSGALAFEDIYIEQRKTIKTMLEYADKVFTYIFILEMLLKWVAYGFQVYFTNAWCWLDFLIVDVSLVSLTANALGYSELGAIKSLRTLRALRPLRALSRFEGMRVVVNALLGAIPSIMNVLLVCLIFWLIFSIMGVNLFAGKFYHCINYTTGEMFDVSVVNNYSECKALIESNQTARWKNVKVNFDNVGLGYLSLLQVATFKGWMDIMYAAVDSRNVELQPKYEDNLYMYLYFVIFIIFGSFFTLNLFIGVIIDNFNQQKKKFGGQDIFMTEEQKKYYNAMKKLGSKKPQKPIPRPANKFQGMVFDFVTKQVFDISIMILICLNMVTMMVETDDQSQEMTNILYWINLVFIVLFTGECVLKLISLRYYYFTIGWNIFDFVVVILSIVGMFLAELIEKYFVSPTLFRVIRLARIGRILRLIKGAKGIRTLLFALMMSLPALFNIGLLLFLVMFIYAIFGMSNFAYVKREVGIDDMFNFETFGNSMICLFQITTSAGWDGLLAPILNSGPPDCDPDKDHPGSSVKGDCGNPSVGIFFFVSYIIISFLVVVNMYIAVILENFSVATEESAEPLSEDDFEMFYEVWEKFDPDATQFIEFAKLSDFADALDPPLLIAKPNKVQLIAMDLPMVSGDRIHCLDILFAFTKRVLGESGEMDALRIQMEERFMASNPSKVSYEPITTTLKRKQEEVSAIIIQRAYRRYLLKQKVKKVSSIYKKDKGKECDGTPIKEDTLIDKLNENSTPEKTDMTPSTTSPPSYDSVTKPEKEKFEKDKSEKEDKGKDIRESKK

CCCC(CCC)C(=O)O [Valproate, valproate]
ED50 (95% CI) in corneal kindling mice ([1]; ref Matagne et al.[40]): 110 ^c (83, 143) mg/kg

CCC1(C)CC(=O)NC1=O (stereo not shown) [Ethosuximide, ethosuximide]
ED50 (95% CI) in corneal kindling mice ([1]; ref Matagne et al.[40]): >254 ^c mg/kg

CCC1(c2ccccc2)C(=O)NC(=O)NC1=O [Phenobarbital, phenobarbital]
ED50 (95% CI) in corneal kindling mice ([1]; ref Matagne et al.[40]): 11 ^c (7, 15) mg/kg

O=C1CN=C(c2ccccc2Cl)c2cc([N+](=O)[O-])ccc2N1 [Clonazepam, clonazepam]
ED50 (95% CI) in corneal kindling mice ([1]; ref Matagne et al.[40]): 0.04 ^c (0.02, 0.07) mg/kg

NC(=O)N1c2ccccc2C=Cc2ccccc21 [Carbamazepine, carbamazepine]
ED50 (95% CI) in corneal kindling mice ([1]; ref Matagne et al.[40]): 9 ^c (5, 11) mg/kg

CN1C(=O)CN=C(c2ccccc2)c2cc(Cl)ccc21 [Diazepam, diazepam]
Emax at 1 µM ([2]; HEK293, read-out: Emax, potentiation of GABA-induced current amplitude): 218%

CNCCCN1c2ccccc2CCc2ccccc21 [Desipramine, desipramine, reference compound]
IC50 [3]: 4.9 µM

Cc1ccsc1C(=CCCN1CCC[C@@H](C(=O)O)C1)c1sccc1C [Tiagabine, tiagabine, reference compound]
TD50 (95% CI) in mouse rotarod test [4]: 1.29 ^b mg/kg | ED50 (95% CI) in corneal kindling mice ([1]; ref Madsen et al.[38]): 0.51 ^a mg/kg | EC50 ([2]; GABA 13 μM, -80 mV, read-out: EC50, potentiation of GABA-induced current amplitude): 4.8 µM | Emax at 100 µM ([2]; HEK293, at 100 μM, control response GABA (13 μM)-induced current, read-out: Emax, potentiation of GABA-induced current amplitude): 153% | effect on basal extracellular GABA concentration [5]: significantly increased | effect on high-potassium-induced extracellular GABA concentration [5]: significantly increased

CC[C@@H](C(N)=O)N1CCCC1=O [Levetiracetam, levetiracetam]
post-ADT/pre-ADT ratio ([6]; levetiracetam 25 mg/kg oral): 127% | Minimum effective dose, amygdala kindling (rat) ([6]; oral, footnote a: minimum effective dose): 25 mg/kg | TD50 (95% CI) in mouse rotarod test [4]: >500 ^b mg/kg | ED50 (95% CI) in corneal kindling mice ([1]; ref Matagne et al.[40]): 16 ^c (6, 43) mg/kg | ED50 ([7]; Mus musculus, oral, 1 hour before electrostimulation, ddY mice, read-out: ED50 (95% CI), 6 Hz-44 mA psychomotor seizures): > 200 mg/kg | anti-seizure efficacy in 6 Hz-44 mA psychomotor seizures ([7]; levetiracetam 20-200 mg/kg oral): did not show ≥50% efficacy
